Data set [1] concerns the target T1, E. coli GroEL/ES (Escherichia coli, UniProt P0A6F5). As to the kind of experiment: Inhibition of Escherichia coli GroEL/GroES expressed in Escherichia coli DH5alpha/BL21 (DE3) assessed as inhibition of denatured MDH refolding preincubated for 10 mins followed by ATP addition measured after 20 to 40 mins by fluorescence based assay.
Data set [2] is described as follows: Cytotoxicity against HEK293 cells assessed as reduction in cell viability after 48 hrs by alamar blue assay. The data set is classed as toxicity, cell-based. The following applies: human. (In general: Alamar Blue is a resazurin reagent that responds to reducing activity.)
Data set [3] is described as follows: Inhibition of pig heart native MDH reporter reaction after 20 to 40 mins by fluorescence based assay. The arrangement: species or system Sus scrofa.
The nature of data set [4]: Cytotoxicity against human THLE3 cells assessed as reduction in cell viability after 48 hrs by alamar blue assay. The data set is classed as toxicity, cell-based.
The subject of data set [5] is Trypanosoma brucei brucei. In words: Antitrypanosomal activity against Trypanosoma brucei brucei Lister 427 VSG 221 [TetR T7RNAP] transgenic bloodstream forms assessed as reduction in cell viability after 48 hrs by alamar blue assay. The data set is classed as functional. Conditions: Lister 427 VSG 221, 48 h.
Data set [6] deals with T2, HSP60/HSP10 (Homo sapiens, UniProt P10809). In words: Inhibition of human mitochondrial HSP60/HSP10 expressed in Escherichia coli DH5alpha/BL21 (DE3) assessed as inhibition of denatured MDH refolding preincubated for 10 mins followed by ATP addition measured after 40 to 60 mins by fluorescence based assay.
T2 sequence (P10809 whole entry): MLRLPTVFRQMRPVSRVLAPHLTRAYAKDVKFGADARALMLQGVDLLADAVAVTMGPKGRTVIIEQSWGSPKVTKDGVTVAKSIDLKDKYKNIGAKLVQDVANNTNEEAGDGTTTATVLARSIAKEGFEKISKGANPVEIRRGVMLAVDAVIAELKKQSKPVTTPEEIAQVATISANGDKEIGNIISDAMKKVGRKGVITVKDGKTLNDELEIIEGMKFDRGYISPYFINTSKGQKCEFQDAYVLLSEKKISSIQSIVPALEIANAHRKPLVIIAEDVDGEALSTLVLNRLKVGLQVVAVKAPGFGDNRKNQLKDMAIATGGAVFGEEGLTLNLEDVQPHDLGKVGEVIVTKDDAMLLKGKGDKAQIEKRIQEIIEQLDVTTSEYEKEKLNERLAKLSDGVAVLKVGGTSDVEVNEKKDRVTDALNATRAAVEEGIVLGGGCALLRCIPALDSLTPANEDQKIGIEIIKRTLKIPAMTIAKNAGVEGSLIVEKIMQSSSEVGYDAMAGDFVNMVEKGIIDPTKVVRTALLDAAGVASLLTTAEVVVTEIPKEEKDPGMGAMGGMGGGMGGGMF
T2 sequence (P61604 whole entry, further chain): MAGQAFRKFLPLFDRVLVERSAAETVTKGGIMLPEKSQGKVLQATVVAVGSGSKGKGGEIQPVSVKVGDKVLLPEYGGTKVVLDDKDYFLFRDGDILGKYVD
Data set [7] deals with T2, HSP60/HSP10. In words: Inhibition of human mitochondrial HSP60/HSP10-ATPase activity expressed in Escherichia coli DH5alpha/BL21 (DE3) assessed as inhibition of denatured MDH refolding preincubated for 10 mins followed by ATP addition measured after 40 to 60 mins by malachite green dye based fluorescence assay.
The target of data set [8] is T1, E. coli GroEL/ES. As to the kind of experiment: Inhibition of Escherichia coli GroEL/GroES-ATPase activity expressed in Escherichia coli DH5alpha/BL21 (DE3) assessed as inhibition of denatured MDH refolding preincubated for 10 mins followed by ATP addition measured after 20 to 40 mins by malachite green dye based fluorescence assay.

Molecules are shown by their SMILES.

Here are results for 22 compounds from ChEMBL document CHEMBL3856280, “Targeting the HSP60/10 chaperonin systems of Trypanosoma brucei as a strategy for treating African sleeping sickness” (Bioorg Med Chem Lett, 2016).

T1 sequence (P0A6F5 whole entry, looked up): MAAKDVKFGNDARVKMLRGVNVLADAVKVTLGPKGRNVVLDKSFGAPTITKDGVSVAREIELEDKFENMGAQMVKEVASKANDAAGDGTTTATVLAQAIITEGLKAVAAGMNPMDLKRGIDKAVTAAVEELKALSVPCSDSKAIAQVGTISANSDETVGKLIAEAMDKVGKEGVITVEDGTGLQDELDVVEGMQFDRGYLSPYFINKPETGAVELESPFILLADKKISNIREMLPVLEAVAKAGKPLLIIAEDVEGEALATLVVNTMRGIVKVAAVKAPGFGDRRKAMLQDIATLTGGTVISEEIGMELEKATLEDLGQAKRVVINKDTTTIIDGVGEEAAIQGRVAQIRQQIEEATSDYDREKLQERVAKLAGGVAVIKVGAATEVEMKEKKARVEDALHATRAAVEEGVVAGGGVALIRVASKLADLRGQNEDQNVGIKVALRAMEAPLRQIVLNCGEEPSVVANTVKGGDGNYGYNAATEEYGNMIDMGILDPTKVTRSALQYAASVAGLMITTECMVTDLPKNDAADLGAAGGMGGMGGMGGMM

For the compound `CS(=O)(=O)Nc1ccc(-c2nc3cc(NS(C)(=O)=O)ccc3o2)cc1`, the IC50 is > 100 µM in data set [1]; > 63 µM in data set [3]; > 100 µM in data set [6]; > 250 µM in data set [7]; > 250 µM in data set [8]. Further, the EC50 at 48 h in data set [2] and in data set [4] was > 100 µM throughout. For the same compound, the 50% effective concentration (EC50) in data set [5] is > 42 µM.

Turning to `O=S(=O)(Nc1ccc(-c2nc3cc(NS(=O)(=O)c4cccc(F)c4)ccc3o2)cc1)c1cccc(F)c1`, the IC50 in data set [1] was 5.3 µM; in data set [3], > 63 µM; in data set [6] it was 68 µM; in data set [7], > 250 µM; in data set [8] it was 5.1 µM. For the same compound, the concentration for a half-maximal effect (EC50) at 48 h in data set [2] came out at 24 µM; in data set [4] it was 20 µM. In data set [5], the EC50 was determined as 10 µM.

As to `O=S(=O)(Nc1ccc(-c2nc3cc(NS(=O)(=O)c4ccccc4)ccc3o2)cc1)c1ccccc1`, the IC50 in data set [1] was 3.9 µM; in data set [3], > 63 µM; in data set [6] it was > 100 µM; in data set [7], > 250 µM; in data set [8], 4.6 µM. The EC50 at 48 h in data set [2] was found to be 15 µM; in data set [4], 19 µM. The EC50 in data set [5] amounted to 6.4 µM.

Consider `O=S(=O)(Nc1ccc(-c2nc3cc(NS(=O)(=O)c4cccc(Cl)c4)ccc3o2)cc1)c1cccc(Cl)c1`, for which the IC50 in data set [1] was 18 µM; in data set [3], > 63 µM; in data set [6], > 100 µM; in data set [7], > 250 µM; in data set [8], > 250 µM. Also, the EC50 at 48 h in data set [2] amounted to 21 µM; in data set [4] it was 17 µM. In data set [5], the concentration giving a half-maximal response (EC50) was found to be 4.5 µM.

`O=S(=O)(Nc1ccc(-c2nc3cc(NS(=O)(=O)c4ccccc4O)ccc3o2)cc1)c1ccccc1O`: the IC50 in data set [1] worked out at 7.5 µM; in data set [6] it was 13 µM; in data set [7], 33 µM; in data set [8] it was 36 µM. In addition, the EC50 at 48 h was 18 µM in data set [2] and 19 µM in data set [4]. Moreover, the EC50 in data set [5] is 5 µM.

Consider `O=S(=O)(Nc1ccc(-c2nc3cc(NS(=O)(=O)c4cccc5nsnc45)ccc3o2)cc1)c1cccc2nsnc12`, for which the 50% inhibitory concentration (IC50) in data set [1] was 22 µM; in data set [3] it was > 63 µM; in data set [6], 98 µM; in data set [7], 152 µM; in data set [8], 127 µM. In addition, the EC50 at 48 h is 52 µM in data set [2] and > 100 µM in data set [4]. For the same compound, the EC50 in data set [5] is > 42 µM.

`O=S(=O)(Nc1ccc(-c2nc3cc(NS(=O)(=O)c4ccc(F)cc4)ccc3o2)cc1)c1ccc(F)cc1`: the IC50 in data set [1] was 3.8 µM; in data set [3], > 63 µM; in data set [6], > 100 µM; in data set [7], > 250 µM; in data set [8], 4.3 µM. Further, the figures for the EC50 at 48 h in data set [2] and in data set [4] were 21 µM and 19 µM, respectively. For the same compound, the 50% effective concentration (EC50) in data set [5] stood at 4.3 µM.

Take `O=S(=O)(Cc1ccccc1)Nc1ccc(-c2nc3cc(NS(=O)(=O)Cc4ccccc4)ccc3o2)cc1`: the IC50 is 55 µM in data set [1]; > 63 µM in data set [3]; > 100 µM in data set [6]; > 250 µM in data set [7]; 208 µM in data set [8]. Further, the EC50 at 48 h in data set [2] came out at 19 µM; in data set [4], 29 µM. The EC50 in data set [5] was found to be 13 µM.

With `O=S(=O)(Nc1ccc(-c2nc3cc(NS(=O)(=O)c4ccccc4F)ccc3o2)cc1)c1ccccc1F`, the IC50 in data set [1] was 22 µM; in data set [3] it was > 63 µM; in data set [6] it was 77 µM; in data set [7], > 250 µM; in data set [8], > 250 µM. Further, the figures for the 50% effective concentration (EC50) at 48 h in data set [2] and in data set [4] were 31 µM and 55 µM, respectively. Also, the EC50 in data set [5] turned out to be 19 µM.

Regarding `O=c1ccc2cc(S(=O)(=O)Nc3ccc(-c4nc5cc(NS(=O)(=O)c6ccc7oc(=O)ccc7c6)ccc5o4)cc3)ccc2o1`, the IC50 in data set [1] is 18 µM; in data set [3], > 63 µM; in data set [6], 70 µM; in data set [7] it was 201 µM; in data set [8], 83 µM. In addition, the EC50 at 48 h in data set [2] and in data set [4] was > 100 µM each time. Further, the EC50 in data set [5] was > 42 µM.

For `O=S(=O)(Nc1ccc(-c2nc3cc(NS(=O)(=O)c4cccc5ccccc45)ccc3o2)cc1)c1cccc2ccccc12`, the IC50 in data set [1] was 23 µM; in data set [3], > 63 µM; in data set [6], > 100 µM; in data set [7], 144 µM; in data set [8], 54 µM. The concentration for a half-maximal effect (EC50) at 48 h in data set [2] was > 100 µM; in data set [4], 69 µM. For the same compound, the EC50 in data set [5] was determined as 2.1 µM.

As for `CCCS(=O)(=O)Nc1ccc(-c2nc3cc(NS(=O)(=O)CCC)ccc3o2)cc1`, the IC50 is > 100 µM in data set [1]; > 63 µM in data set [3]; > 100 µM in data set [6]; > 250 µM in data set [7]; > 250 µM in data set [8]. Besides, the EC50 at 48 h in data set [2] and in data set [4] was > 100 µM throughout. Further, the EC50 in data set [5] was 18 µM.

On to `O=S(=O)(Nc1ccc(-c2nc3cc(NS(=O)(=O)c4cccc(Br)c4)ccc3o2)cc1)c1cccc(Br)c1`, for which the IC50 in data set [1] is 23 µM; in data set [3] it was > 63 µM; in data set [6], > 100 µM; in data set [7], > 250 µM; in data set [8], 45 µM. The EC50 at 48 h in data set [2] stood at 25 µM; in data set [4], 21 µM. In addition, in data set [5], the EC50 was 8 µM.

For `O=S(=O)(Nc1ccc(-c2nc3cc(NS(=O)(=O)c4cccc5nonc45)ccc3o2)cc1)c1cccc2nonc12`, the half-maximal inhibitory concentration (IC50) in data set [1] is 32 µM; in data set [3], > 63 µM; in data set [6], 66 µM; in data set [7], 212 µM; in data set [8], > 250 µM. The results for the EC50 at 48 h in data set [2] and in data set [4] were 45 µM and 58 µM, respectively. Moreover, in data set [5], the EC50 is > 42 µM.

For `O=S(=O)(Nc1ccc(-c2nc3cc(NS(=O)(=O)c4ccc5ncsc5c4)ccc3o2)cc1)c1ccc2ncsc2c1`, the IC50 is 0.81 µM in data set [1]; > 63 µM in data set [3]; 49 µM in data set [6]; > 250 µM in data set [7]; 0.55 µM in data set [8]. For the same compound, the 50% effective concentration (EC50) at 48 h in data set [2] was 95 µM; in data set [4] it was 30 µM. For the same compound, the EC50 in data set [5] worked out at 25 µM.

Regarding `O=S(=O)(Nc1ccc(-c2nc3cc(NS(=O)(=O)C(F)(F)F)ccc3o2)cc1)C(F)(F)F`, the IC50 was 40 µM in data set [1]; > 63 µM in data set [3]; 97 µM in data set [6]; > 250 µM in data set [7]; > 250 µM in data set [8]. The EC50 at 48 h in data set [2] and in data set [4] was > 100 µM in each case. In addition, in data set [5], the EC50 is > 42 µM.

`O=S(=O)(Nc1ccc(-c2nc3cc(NS(=O)(=O)c4cccs4)ccc3o2)cc1)c1cccs1`: the IC50 is 4.6 µM in data set [1]; > 63 µM in data set [3]; 57 µM in data set [6]; > 250 µM in data set [7]; 6.7 µM in data set [8]. The values for the EC50 at 48 h in data set [2] and in data set [4] were 26 µM and 44 µM, respectively. For the same compound, the EC50 in data set [5] was 17 µM.

On to `O=S(=O)(Nc1ccc(-c2nc3cc(NS(=O)(=O)c4ccc(Cl)cc4)ccc3o2)cc1)c1ccc(Cl)cc1`, for which the IC50 in data set [1] is 23 µM; in data set [3] it was > 63 µM; in data set [6], 96 µM; in data set [7] it was > 250 µM; in data set [8], 35 µM. The EC50 at 48 h in data set [2] turned out to be 13 µM; in data set [4], 18 µM. In addition, the EC50 in data set [5] was determined as 3.2 µM.

Take `O=S(=O)(Nc1ccc(-c2nc3cc(NS(=O)(=O)c4ccc(Br)cc4)ccc3o2)cc1)c1ccc(Br)cc1`: the half-inhibitory concentration (IC50) is 24 µM in data set [1]; > 63 µM in data set [3]; > 100 µM in data set [6]; > 250 µM in data set [7]; 19 µM in data set [8]. For the same compound, the EC50 at 48 h came out at 22 µM in data set [2] and 16 µM in data set [4]. Besides, in data set [5], the concentration for a half-maximal effect (EC50) is 2.4 µM.

`O=S(=O)(Nc1ccc(-c2nc3cc(NS(=O)(=O)c4ccc5nsnc5c4)ccc3o2)cc1)c1ccc2nsnc2c1`: the IC50 was 3.7 µM in data set [1]; > 63 µM in data set [3]; 62 µM in data set [6]; 127 µM in data set [7]; 1.7 µM in data set [8]. The EC50 at 48 h in data set [2] worked out at 76 µM; in data set [4], 45 µM. Moreover, the EC50 in data set [5] is > 42 µM.

With `O=S(=O)(Nc1ccc(-c2nc3cc(NS(=O)(=O)c4ccccc4Br)ccc3o2)cc1)c1ccccc1Br`, the IC50 in data set [1] is 63 µM; in data set [3] it was > 63 µM; in data set [6], > 100 µM; in data set [7], > 250 µM; in data set [8], 144 µM. Also, the EC50 at 48 h is 28 µM in data set [2] and 37 µM in data set [4]. The EC50 in data set [5] worked out at 28 µM.

`O=S(=O)(Nc1ccc(-c2nc3cc(NS(=O)(=O)c4ccccc4Cl)ccc3o2)cc1)c1ccccc1Cl`: the IC50 in data set [1] was 46 µM; in data set [3], > 63 µM; in data set [6], > 100 µM; in data set [7] it was > 250 µM; in data set [8], 131 µM. Moreover, the results for the concentration for a half-maximal effect (EC50) at 48 h in data set [2] and in data set [4] were 75 µM and 24 µM, respectively. Besides, the 50% effective concentration (EC50) in data set [5] came out at 5.9 µM.

One may read the IC50 as the concentration that inhibits the measured activity by half. The term EC50 denotes the concentration that produces a half-maximal response.
